The test system of the assay is P388 leukemia ip, CD2F1 mice, survival T/C. The assay can be described thus: NCI In Vivo Anticancer Drug Screen. Data for tumor model P388 Leukemia (intraperitoneal) in CD2F1 (CDF1) mice. The following applies: endpoint: median survival time, higher = longer survival. In a few lines: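 Mice carrying the transplanted tumor received test compound or vehicle. Survival was recorded in each group, and the value is the treated-group measurement divided by that of the vehicle-treated control group.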

Setting [1] is: dose: 50.0 mg/kg/injection, schedule: Q01DX005 (ip), vehicle: saline with Tween-80.
Setting [2] is: dose: 100.0 mg/kg/injection, schedule: Q01DX005 (ip), vehicle: saline with Tween-80.
Where [3] appears, read: dose: 200.0 mg/kg/injection, schedule: Q01DX005 (ip), vehicle: saline with Tween-80.
[4] abbreviates: dose: 50.0 mg/kg/injection, schedule: Q04DX003 (ip), vehicle: saline with Tween-80.
The mark [5] stands for this setting: dose: 100.0 mg/kg/injection, schedule: Q04DX003 (ip), vehicle: saline with Tween-80.
[6] abbreviates: dose: 25.0 mg/kg/injection, schedule: Q01DX005 (ip), vehicle: saline.
Where [7] appears, read: dose: 50.0 mg/kg/injection, schedule: Q01DX005 (ip), vehicle: saline.
Where [8] appears, read: dose: 100.0 mg/kg/injection, schedule: Q01DX005 (ip), vehicle: saline.
[9] abbreviates: dose: 50.0 mg/kg/injection, schedule: Q01DX005 (ip), vehicle: Klucel (hydroxypropylcellulose) (HPC).
Setting [10] is: dose: 100.0 mg/kg/injection, schedule: Q01DX005 (ip), vehicle: Klucel (hydroxypropylcellulose) (HPC).
[11] abbreviates: dose: 200.0 mg/kg/injection, schedule: Q01DX005 (ip), vehicle: Klucel (hydroxypropylcellulose) (HPC).
Where [12] appears, read: dose: 50.0 mg/kg/injection, schedule: Q01DX009 (ip), vehicle: saline with Tween-80.
The mark [13] stands for this setting: dose: 100.0 mg/kg/injection, schedule: Q01DX009 (ip), vehicle: saline with Tween-80.
[14] abbreviates: dose: 200.0 mg/kg/injection, schedule: Q01DX005 (ip), vehicle: saline.
[15] abbreviates: dose: 50.0 mg/kg/injection, schedule: Q01DX009 (ip), vehicle: Klucel (hydroxypropylcellulose) (HPC).
Setting [16] is: dose: 100.0 mg/kg/injection, schedule: Q01DX009 (ip), vehicle: Klucel (hydroxypropylcellulose) (HPC).
The mark [17] stands for this setting: dose: 60.0 mg/kg/injection, schedule: Q01DX005 (ip), vehicle: saline with Tween-80.
Setting [18] is: dose: 25.0 mg/kg/injection, schedule: Q01DX005 (ip), vehicle: saline with Tween-80.

Values joined by “and” are separate entries in the source; they are usually repeats but may differ in a detail not shown here. Equal entries are not always repeated. Inconclusive results and toxic doses are left out.

With `CCOC(=O)C1CCC(=O)C(CC)=C1C` (stereo not drawn), the T/C under setting [1] was 103 % of control, the T/C under setting [2] is 103 % of control and the T/C under setting [3] is 107 % of control.

For the compound `CN(C)[C@@H]1C(=O)C(C(=O)NCN(CCCl)CCCl)=C(O)[C@@]2(O)C(=O)C3=C(O)c4c(O)cccc4[C@@](C)(O)[C@H]3C[C@@H]12`, the T/C reads like this: (dose: 33.0 mg/kg/injection, schedule: Q04DX003 (ip), vehicle: saline with Tween-80) 159 % of control; (dose: 44.0 mg/kg/injection, schedule: Q04DX003 (ip), vehicle: saline) 154 % of control; under setting [4], 158 % of control and 172 % of control; (dose: 66.0 mg/kg/injection, schedule: Q04DX003 (ip), vehicle: saline) 181 % of control; (dose: 75.0 mg/kg/injection, schedule: Q04DX003 (ip), vehicle: saline with Tween-80) 168 % of control; under setting [5], 100 % of control. Besides, the T/C (dose: 100.0 mg/kg/injection, schedule: Q04DX003 (ip), vehicle: saline) was 209 % of control.

Turning to `CC1(C)NC(=O)[C@]2(C[C@@H](O)C=C2CO)O1`, the T/C by setting is: under setting [6], 94 % of control; under setting [7], 99 % of control; under setting [8], 93 % of control.

As for `CCOC(=O)c1cn(C)c(=O)c(Br)c1C#N`, the T/C is 92 % of control under setting [1], 96 % of control under setting [2] and 93 % of control under setting [3].

As for `Cc1nc2[nH]ncc2c(=O)n1-c1ccccc1`, the T/C by setting is: under setting [9], 97 % of control; under setting [10], 99 % of control; under setting [11], 100 % of control.

In the case of `O=c1[nH]c(=S)cnn1C1OC(CO)C(O)C1O` (stereo not drawn), the T/C is 106 % of control (dose: 50.0 mg/kg/injection, schedule: Q01DX009 (ip), vehicle: saline); 94 % of control (dose: 100.0 mg/kg/injection, schedule: Q01DX009 (ip), vehicle: saline); 101 % of control (dose: 200.0 mg/kg/injection, schedule: Q01DX009 (ip), vehicle: saline).

For `CC(=O)NNC1=NC(C)(C)CC1`, the T/C runs as follows: (dose: 100.0 mg/kg/injection, schedule: Q01DX001 (ip), vehicle: saline) 97 % of control; (dose: 200.0 mg/kg/injection, schedule: Q01DX001 (ip), vehicle: saline) 102 % of control; (dose: 400.0 mg/kg/injection, schedule: Q01DX001 (ip), vehicle: saline) 102 % of control.

With `CN(CCO)c1n[nH]c(=O)c2ccccc12`, the T/C runs as follows: under setting [12], 109 % of control; under setting [13], 101 % of control; (dose: 200.0 mg/kg/injection, schedule: Q01DX009 (ip), vehicle: saline with Tween-80) 101 % of control.

Turning to `CC(C)CC(N)C(=O)NCCC(=O)O` (stereo not drawn), the T/C is 101 % of control under setting [7], 101 % of control under setting [8] and 100 % of control under setting [14].

With `Clc1cccc(Cl)c1NC1=NCCS1`, the T/C runs as follows: under setting [15], 92 % of control; under setting [16], 101 % of control.

On to `Cc1csnn1`, for which the T/C is, setting by setting: (dose: 15.0 mg/kg/injection, schedule: Q01DX005 (ip), vehicle: saline with Tween-80) 105 % of control; (dose: 30.0 mg/kg/injection, schedule: Q01DX005 (ip), vehicle: saline with Tween-80) 100 % of control; under setting [17], 102 % of control.

Consider `Cc1ccccc1NC(=O)OCCCl`, for which the T/C runs as follows: under setting [17], 100 % of control; (dose: 120.0 mg/kg/injection, schedule: Q01DX005 (ip), vehicle: saline with Tween-80) 100 % of control; (dose: 240.0 mg/kg/injection, schedule: Q01DX005 (ip), vehicle: saline with Tween-80) 97 % of control.

`COC(=O)c1cc(C(=O)OC)c2c3[nH]cnc3ncn2c1=O`: the T/C was 98 % of control under setting [5]; 100 % of control (dose: 200.0 mg/kg/injection, schedule: Q04DX003 (ip), vehicle: saline with Tween-80); 97 % of control (dose: 400.0 mg/kg/injection, schedule: Q04DX003 (ip), vehicle: saline with Tween-80).

On to `CCC/C(C)=C(/C#N)CC`, for which the T/C by setting is: (dose: 25.0 mg/kg/injection, schedule: Q01DX009 (ip), vehicle: Klucel (hydroxypropylcellulose) (HPC)) 101 % of control; under setting [15], 101 % of control; under setting [16], 101 % of control.

Consider `CO[C@@]12[C@@H]3N[C@@H]3CN1C1=C(C(=O)C(N3CCCC3)=C(C)C1=O)[C@@H]2COC(N)=O`, for which the T/C is 193 % of control (dose: 0.78 mg/kg/injection, schedule: Q01DX005 (ip), vehicle: saline with Tween-80); 186 % of control (dose: 3.75 mg/kg/injection, schedule: Q01DX005 (ip), vehicle: saline with Tween-80); 214 % of control (dose: 10.4 mg/kg/injection, schedule: Q01DX005 (ip), vehicle: saline with Tween-80); 214 % of control (dose: 17.4 mg/kg/injection, schedule: Q01DX005 (ip), vehicle: saline with Tween-80); 87 % of control under setting [18].

For the compound `O=S(Nc1ccccc1)Nc1ccccc1`, the T/C is, setting by setting: (dose: 25.0 mg/kg/injection, schedule: Q01DX009 (ip), vehicle: saline with Tween-80) 100 % of control; under setting [12], 100 % of control; under setting [13], 90 % of control.

On to `O=C1C2(CCCC13N=NCC3c1ccccc1)N=NCC2c1ccccc1` (stereo not drawn), for which the T/C is 93 % of control (dose: 60.0 mg/kg/injection, schedule: Q01DX005 (ip), vehicle: Klucel (hydroxypropylcellulose) (HPC)); 88 % of control (dose: 120.0 mg/kg/injection, schedule: Q01DX005 (ip), vehicle: Klucel (hydroxypropylcellulose) (HPC)); 93 % of control (dose: 240.0 mg/kg/injection, schedule: Q01DX005 (ip), vehicle: Klucel (hydroxypropylcellulose) (HPC)).

With `CC(NN(C)C(=S)Nc1ccccc1)c1ccccn1` (stereo not drawn), the T/C runs as follows: under setting [1], 100 % of control; under setting [2], 103 % of control; under setting [3], 109 % of control.

As to `NC(CCC(=O)NC(CS)C(=O)NCC(=O)O)C(=O)O` (stereo not drawn), the T/C is, setting by setting: under setting [6], 102 % of control; under setting [7], 104 % of control and 108 % of control; under setting [8], 98 % of control and 94 % of control; under setting [14], 102 % of control; (dose: 400.0 mg/kg/injection, schedule: Q01DX005 (ip), vehicle: saline) 93 % of control.

`[Cu+2].[O-]/C(=N\N=C\c1ccccn1)c1ccccc1O.[O-]/C(=N\N=C\c1ccccn1)c1ccccc1O`: the T/C (dose: 50.0 mg/kg/injection, schedule: Q04DX002 (ip), vehicle: saline with Tween-80) is 98 % of control; the T/C (dose: 100.0 mg/kg/injection, schedule: Q04DX002 (ip), vehicle: saline with Tween-80) is 95 % of control; the T/C (dose: 200.0 mg/kg/injection, schedule: Q04DX002 (ip), vehicle: saline with Tween-80) is 94 % of control.

As to `Cc1ccc(S(=O)(=O)N(CCOc2c3occc3cc3ccc(=O)oc23)CCN(CCN(CCOc2c3occc3cc3ccc(=O)oc23)S(=O)(=O)c2ccc(C)cc2)S(=O)(=O)c2ccc(C)cc2)cc1`, the T/C runs as follows: (dose: 100.0 mg/kg/injection, schedule: Q01DX001 (ip), vehicle: saline with Tween-80) 87 % of control; (dose: 200.0 mg/kg/injection, schedule: Q01DX001 (ip), vehicle: saline with Tween-80) 86 % of control.

As for `COc1ccc2c3c(c(=O)n(C)c2c1OC)C=CC(C)(C)O3`, the T/C was 94 % of control (dose: 25.0 mg/kg/injection, schedule: Q01DX005 (ip), vehicle: Klucel (hydroxypropylcellulose) (HPC)); 100 % of control under setting [9]; 100 % of control under setting [10]; 88 % of control under setting [11].

On to `Cc1ccc(SNc2ccccc2)cc1`, for which the T/C is 96 % of control under setting [4] and 96 % of control under setting [5].

As for `COc1ccc2sc3c(C)ccc(NCCCC4CCCN5CCCCC45)c3c(=O)c2c1` (stereo not drawn), the T/C is 94 % of control (dose: 6.25 mg/kg/injection, schedule: Q01DX005 (ip), vehicle: saline with Tween-80); 92 % of control (dose: 12.5 mg/kg/injection, schedule: Q01DX005 (ip), vehicle: saline with Tween-80); 89 % of control under setting [18].

These data come from PubChem BioAssay AID330 (DTP/NCI, 2004).
